Experimental data from paper PMC10693084, “Novel 8-Methoxycoumarin-3-Carboxamides with potent anticancer activity against liver cancer via targeting caspase-3/7 and β-tubulin polymerization” (BMC Chemistry, 2023).

Legend:
β-tubulin = biological target: T1, β-tubulin (Homo sapiens, UniProt P07437); assay: β-tubulin polymerization activity (TUB β ELISA, 450 nm) in HepG2 cells; assay type: cell-based; settings: HepG2, 0.9 µM, 24 h
T1 construct: impact of compound 5 on β-tubulin polymerization activity in HepG2 cells; endogenous in cells; host or cells: HepG2
From the text: Microtubules are widely recognized as a significant target for anti-cancer therapy due to their pivotal involvement in cellular division and the preservation of cellular morphology. The impact of numerous anti-cancer agents is achieved through their ability to disrupt microtubule dynamics. This disruption ultimately results in the deregulation of mitotic spindles, leading to cell cycle arrest in cancer cells and subsequently inducing apoptosis. Toward this end, we further aimed to assess investigated the impact of compound 5 on β-tubulin polymerization activity in HepG2 cells. Thus, HepG2 cells were treated with compound 5 at (0.9 µM) for a duration of 24 h and the activity of β-tubulin polymerization was explored using spectrophotometry at 450 nm. […] These findings indicate that compound 5 interferes with the process of microtubule assembly, thereby disrupting the proper formation of mitotic spindles. […]
Dulbecco's Modified Eagle Medium (DMEM) (Invitrogen/Life Technologies) containing 10% fetal bovine serum (FBS) (Hyclone), 10 µg/mL of insulin (Sigma), and 1% penicillin–streptomycin was used for culturing the HepG2 cell line. […] This color change was then quantitatively measured using spectrophotometry at a specific wavelength of 450 nm ± 10 nm. […]

HepG2 cells = assay: Annexin V-FITC/PI apoptosis screening; assay type: cell-based, human; settings: HepG2, IC50 concentration, 24 h
From the text: Next, we have conducted Annexin V-FITC/PI screening to further investigate the impact of compound 5 on the growth of HepG2 cells and comprehensively analyze programmed cell death. The Annexin V-FITC/PI assay is a widely used method to differentiate between apoptotic and necrotic cells based on their membrane integrity and phospholipid exposure. […] The results from the Annexin V-FITC/PI screening provide crucial insights into the mode of action of compound 5 in inducing cell death in HepG2 cells. Annexin V-FITC is a marker that binds specifically to phosphatidylserine (PS), a phospholipid that becomes externalized on the cell membrane during early apoptosis. Propidium iodide (PI) is a dye that can penetrate cells with compromised membranes, typically found in late-stage apoptosis or necrosis. […] This is important since apoptosis is a highly regulated process, and its induction is a favorable outcome for anti-cancer therapies, as opposed to necrosis, which is often associated with cell death caused by injury or external damage. Overall, these findings from the Annexin V-FITC/PI screening support the ability of compound 5 to induce apoptosis in HepG2 cells and its lack of significant induction of necrosis reinforce its potential as a promising candidate for anti-cancer therapy.
Apoptosis detection in HepG-2 cells was conducted utilizing the BioVision® annexin‐V‐FITC apoptosis detection kit in accordance with the instructions provided by the manufacturer. The quantification of apoptosis was performed using a FACS Calibur flow cytometer, with a wavelength of 488 nm. In a concise manner, a total of 1–5 × 10^5 cells were obtained through the process of centrifugation. The cells were subsequently exposed to compound 5 at concentrations corresponding to its IC50 value for a duration of 24 h. Following this treatment, the cells were resuspended in a binding buffer solution with a volume of 500 μl. The addition of Annexin-V-FITC and PI was performed. Subsequently, the specimens were subjected to incubation at ambient temperature for a duration of 5 min, while being shielded from light. The analysis of Annexin-V-FITC binding was conducted utilizing a dedicated signal detector.

[1] = tested on: human liver carcinoma HepG2 cells; assay: MTT cytotoxicity assay against HepG2 cells; assay type: cell-based; settings: HepG2 cells
Experimental: To assess the antitumor properties of these compounds, we utilized the 3-(4,5-dimethylthiazol-2-yl)-2,5-diphenyl tetrazolium bromide (MTT) colorimetric assay, a widely used method to evaluate cell viability and cytotoxicity.
Following the incubation period, the cells were subjected to various concentrations of the prepared molecules and subsequently incubated for a duration of 24 h. […] Subsequently, a volume of 100 μL of dimethyl sulfoxide (DMSO) was introduced into each well in order to facilitate the dissolution of the purple formazan that had been generated. The quantification of the color intensity of the formazan product, which serves as an indicator of the cellular growth condition, is performed by employing an ELISA plate reader set at a wavelength of 570 nm. The experimental conditions were implemented with a minimum of three replicates, and the experiments were conducted on at least three separate occasions.

T1 sequence (P07437 whole entry): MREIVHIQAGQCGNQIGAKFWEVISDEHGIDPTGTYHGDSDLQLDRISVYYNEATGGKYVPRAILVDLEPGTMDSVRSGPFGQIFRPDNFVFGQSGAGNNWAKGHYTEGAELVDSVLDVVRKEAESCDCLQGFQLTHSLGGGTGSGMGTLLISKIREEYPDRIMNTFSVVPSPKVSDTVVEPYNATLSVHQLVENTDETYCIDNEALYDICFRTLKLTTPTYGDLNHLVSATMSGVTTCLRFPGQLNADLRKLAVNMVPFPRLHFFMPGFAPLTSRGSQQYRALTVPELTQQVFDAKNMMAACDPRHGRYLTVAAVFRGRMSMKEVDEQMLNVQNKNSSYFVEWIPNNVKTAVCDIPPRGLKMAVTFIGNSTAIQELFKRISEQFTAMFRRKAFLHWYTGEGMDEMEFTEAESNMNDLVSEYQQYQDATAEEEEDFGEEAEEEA
T1 sequence (P68363 whole entry partner): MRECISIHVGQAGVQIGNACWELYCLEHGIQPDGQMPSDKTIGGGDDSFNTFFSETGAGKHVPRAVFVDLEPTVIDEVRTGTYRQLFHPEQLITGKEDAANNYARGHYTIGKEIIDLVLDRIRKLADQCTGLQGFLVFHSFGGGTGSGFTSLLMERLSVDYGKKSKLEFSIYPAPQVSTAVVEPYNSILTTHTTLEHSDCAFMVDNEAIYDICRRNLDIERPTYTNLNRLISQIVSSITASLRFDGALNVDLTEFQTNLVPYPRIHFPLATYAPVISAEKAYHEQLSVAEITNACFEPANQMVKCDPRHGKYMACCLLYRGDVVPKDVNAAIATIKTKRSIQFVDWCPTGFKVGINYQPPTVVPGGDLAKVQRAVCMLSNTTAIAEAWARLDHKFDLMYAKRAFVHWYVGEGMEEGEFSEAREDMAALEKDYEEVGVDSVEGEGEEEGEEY

- reduction in the concentration of β-tubulin polymerization vs untreated HepG2 cells (β-tubulin): threefold
Compound: COc1ccc(Br)c2cc(C(N)=O)c(=O)oc12 [Compound 5, 5-Bromo-8-methoxycoumarin-3-carboxamide]
- fold increase of early apoptosis vs control (HepG2 cells): 42 fold
- fold increase of late-stage apoptosis vs control (HepG2 cells): 100 fold
- fold increase of necrosis vs untreated (HepG2 cells): threefold
- fold increase of programmed cell death vs untreated (HepG2 cells): 22 fold
- percentage of cells in late-stage apoptosis (HepG2 cells; control 0.22%): 22.16%
- percentage of cells undergoing early apoptosis (HepG2 cells; control 0.46%): 19.51%
- percentage of cells undergoing necrosis (HepG2 cells; untreated 1.4%): 4.21%
- total percentage of programmed cell death (HepG2 cells; untreated 2.08%): 45.88%
- Structure–activity summary of cytotoxic activity (Fig. 4B) [1]: improved activity
- IC50 ([1]; Homo sapiens, HepG2, 24 h, MTT, 24 h treatment): 0.9 ± 0.05 µM
